From patent publication US20220117964A1, “COMBINATION OF FAK INHIBITOR AND BTK INHIBITOR FOR TREATING A DISEASE” (ASCENTAGE PHARMA (SUZHU) CO., LTD., priority 2019, published 2022)
“And” between values parts separate entries of the source, which are not always exact repeats. Equal entries are not always repeated.

Key:
[1] = tested on: KYSE-150 cells; assay: Cell migration (Transwell) assay; type: cell-based, human; details: 1 μM Compound 5, 1 μM Ibrutinib or both
Experimental: (§1) The culture medium was sucked into a chamber of Transwell (PC membrane, pore size 8.0 μm, Corning, N.Y., USA), and then the chamber was placed in a 24-well plate containing 750 μl of 50% FBS medium. After incubation for 24 to 30 hours, the chamber was taken out, the medium in the chamber was sucked out, and the redundant cells in the chamber were wiped off with a cotton swab. The chamber was placed in paraformaldehyde to perform fixation for 15 minutes, and staining was performed with 0.5% crystal violet at room temperature for 15 minutes. Cell migration activity was described as a relative number of the cells that exited the chamber.
(§2) (1) The experimental method was as described in the items (1), (2), (5) of Example 2. […] The changes in signaling pathway of related proteins were determined by Western blotting assay.

[2] = tested on: human KYSE-150 mouse xenograft tumor model; assay: Human KYSE-150 mouse xenograft tumor model, antitumor effect; type: in vivo, BALB/c Nude mice; details: for RTV on day 12 after administration (mean ± standard error): day 12 (last dose); for RTV on day 12 after administration (mean ± standard error) / T/C on day 12 after administration (%) / RTV on day 18 after administration (mean ± standard error) / T/C on day 18 after administration (%): Compound 5 100 mg/kg p.o., Ibrutinib 25 mg/kg i.p.; for RTV on day 12 after administration (mean ± standard error) / RTV on day 18 after administration (mean ± standard error): qd × 5d, withdrawal 2 days/week × 2 weeks; for Tumor state on day 12 after administration: CR: day 12, animals with complete regression of tumor / group; for Tumor state on day 12 after administration: PR: day 12, animals with partial regression of tumor / group; for Tumor state on day 12 after administration: SD: day 12, animals with stable disease / group; for RTV on day 18 after administration (mean ± standard error): day 18 (after drug withdrawal); for Tumor state on day 18 after administration: CR: day 18, animals with complete regression of tumor / group; for Tumor state on day 18 after administration: PR: day 18, animals with partial regression of tumor / group; for Tumor state on day 18 after administration: SD: day 18, animals with stable disease / group
Experimental: The animals used were BALB/c Nude mice, 4-6 weeks old, female. Animal body weight was 14-16±20% g. The experimental animals were provided by Beijing Weitonglihua Experimental Animal Technology Co., Ltd. (Vital River Laboratories, VRL, license number: SOCK (J) 2016-0011). Animal certificate number: 11400700325794.
Compound 5 was intragastrically administered at a dose of 100 mg/kg and a volume of 200 μl. The preparation for the administration was prepared every 3 days and stored at 4° C. when it has not been in use. The formulation and use of the preparation were carried out under sterile conditions. […] The preparation for the administration was prepared every 3 days and stored at 4° C. The formulation and use of the preparation were carried out under sterile conditions.
Forty immunodeficiency mice were subcutaneously injected with 5×10^6 KYSE-150 cells suspended in 100 μl PBS in the right armpit to establish a xenograft tumor model. […] When the tumor reached an appropriate size (50 to 100 mm^3), the animals were randomly assigned according to the tumor volume, in which the difference in tumor volume among groups should be less than 10% of the mean value, and at last 7 mice were assigned to each group, and the administration was star ted on the day of group assignment (i.e., d1).
A subcutaneous immunodeficient-mice xenograft tumor model of human tumor was established by cell inoculation method: tumor cells in logarithmic growth phase were collected, counted and resuspended in 1×PBS, and the concentration of cell suspension was adjusted to 5×10^7/mL. 1 mL syringe ([…]) was used to inoculate the tumor cells subcutaneously on the right back of immunodeficient mice, 5×10^6/0.1 mL/mouse. All animal experiments were performed strictly in accordance with the guidelines for Institutional Animal Care and Use Committee (IACUC) of Sun Yat-sen University and Suzhou Yasheng Pharmaceutical Co., Ltd. The calculation of related parameters referred to China NMPA “Technical Guidelines for Nonclinical Research of Cytotoxic Antitumor Drugs”.
Animal body weight and tumor size were measured twice per week during the experiment. The growth of tumor was periodically observed, and when the tumor grew to an average volume of 50 to 100 mm^3, the mice were randomly divided into groups for administration according to tumor size and body weight. The status and deaths of the animals were observed every day. The routine monitoring included the effects of tumor growth and drug administration on the normal behaviors of animals, specially included the activity of experimental animals, food and water consumption, weight gain or loss, eyes, hair, and other abnormal conditions. The deaths and clinical symptoms observed during the experiment were recorded in the raw data. The entire operation for administration, measurement of mouse weight and tumor volume was performed in a clean bench. According to the requirements of the experimental protocol, when the long diameter of tumor was greater than 20 mm, the experimental end point was reached and the mice were euthanized. Tumor tissues were collected, weighed and photographed for recording.
Tumor volume (TV) was calculated as: TV=a×b^2/2, wherein a and b represented the measured length and width of tumor, respectively. The relative tumor volume (RTV) was calculated as: RTV=Vt/V1, wherein V1 represented the tumor volume at the time of group assignment and administration, and Vt represented the tumor volume on a certain day after administration.

[3] = tested on: YES-2 cells; assay: Cell migration (Transwell) assay; type: cell-based; details: 0.5 μM Compound 5, 0.25 μM Ibrutinib or both
Experimental: as §1, §2

[4] = tested on: Cyclin B1; assay: Western blot, KYSE-150 and KYSE-520 cells; type: cell-based; details: KYSE-150 (1 μM Compound 5, 1 μM Ibrutinib) and KYSE-520 (1 μM Compound 5, 0.5 μM Ibrutinib), 24 hours
Experimental: The cells were lysed on ice with 1× cell lysis buffer containing 1% protease inhibitor (PMSF) and 1% phosphokinase inhibitor for 30 minutes, centrifuged at 12000 rpm and 4° C. for 15 minutes, and the supernatant protein lysate was collected. The protein concentration was measured by BCA protein concentration detection kit. The cell protein lysates (20 to 50 μg) were separated using 8-12% SDS-PAGE electrophoresis. The separated proteins were transferred to a PVDF membrane. The PVDF membrane was blocked with 5% BSA buffer at room temperature for 30 minutes to 1 hour, and then incubated overnight on a 4° C. shaker with 1× TBST containing primary antibody. The redundant primary antibody was eluted, and the membrane was washed 3 times with 1× TBST, 5 to 10 minutes for each time. The protein band membrane was incubated with horseradish peroxidase-labeled secondary antibody dilution for 1 hour at room temperature, and the membrane was washed 3 times with 1× TBST, 5 to 10 minutes for each time. The signal generation and detection were performed using an ECL chemiluminescence ultrasensitive colorimetric kit and a chemiluminescence imaging system. The primary antibodies used in this experiment included: EGFR, (CST, Cat.4267S); phosphorylated EGFR (p-EGFR (Tyr1068)), (CST, Cat.3777T); FAK, (CST, Cat.3285S); phosphorylated FAK (p-FAK (Tyr397)), (CST, Cat.8556T); AKT, (CST, Cat.4685S); phosphorylated p-AKT (Ser473), (CST, Cat.9271S); ERK, (CST,Cat.4695S); phosphorylated ERK (p-ERK (Thr202/Tyr204)), (CST, Cat.4370T); phosphorylated MEK (p-MEK (Ser217/221)), (CST, Cat.9121S);BTK, (Immunoway, Cat. YM1294); C-Myc, (CST, Cat. 5605); phosphorylated C-Myc, (CST, Cat. 13748); Cyclin B1 (CST, Cat. 12231S), Cylin D1 (CST, Cat.2978S), GAPDH (ABGENT, Cat.AM1020B). The secondary antibodies used in this experiment included goat-anti-rabbit secondary antibody (Senta, Cat. Sc-2004) and goat-anti-mouse secondary antibody (Senta, Cat. Sc-2005).
as §2

Row | Compound | cell migration [1] | RTV on day 12 after administration (mean ± standard error) [2] | Tumor state on day 12 after administration: CR [2] | Tumor state on day 12 after administration: PR [2] | Tumor state on day 12 after administration: SD [2] | T/C on day 12 after administration (%) [2] | RTV on day 18 after administration (mean ± standard error) [2] | Tumor state on day 18 after administration: CR [2] | Tumor state on day 18 after administration: PR [2] | Tumor state on day 18 after administration: SD [2] | T/C on day 18 after administration (%) [2] | cell migration [3] | Tumor state on day 18 after administration: remission rate, % ([2]; day 18, remission including CR, PR and SD) | protein expression level of Cyclin B1 [4]
1 | Cc1cc(Nc2ncc(Cl)c(Nc3ccccc3S(=O)(=O)C(C)C)n2)c(OC(C)C)cc1C1=CCN(C2CCOCC2)CC1 [Compound 5, 5-chloro-N^2-(2-isopropoxy-5-methyl-4-(1-(tetrahydro-2H-pyran-4-yl)-1,2,3,6-tetrahydropyridin-4-yl)phenyl)-N^4-(2-(isopropylsulfonyl)phenyl)pyrimidine-2,4-diamine] | cell migration in certain extent | 1.4 | 0/7 CR | 1/7 and 1/7 PR | 1/7 and 1/7 SD | 49.8% | 3.0 | 0/7 CR | 1/7 and 1/7 PR | 0/7 SD | 55.8% | cell migration in certain extent |  | 
2 | C=CC(=O)N1CCC[C@@H](n2nc(-c3ccc(Oc4ccccc4)cc3)c3c(N)ncnc32)C1 [Ibrutinib] | cell migration in certain extent | 1.4 | 0/7 CR | 1/7 and 1/7 PR | 1/7 and 1/7 SD | 48.6% | 3.8 | 0/7 CR | no animal and 0/7 PR | no animal and 0/7 SD | 70.2% | cell migration in certain extent | (0%) | significantly decrease
